Data: US10088479B2, “Biomarker and uses thereof” (ISIS INNOVATION LIMITED, priority 2014, dated 2018)
Where no end group is shown, it is not given here. [ ]: non-standard residue; d: D form. Cit = NC(=O)NCCC[C@H](N)C(=O)O

Legend:
[1] = system: primary human macrophages; test: Cytokine synthesis in primary human macrophages stimulated with FBG peptides; format: cell-based; settings: 1 or 20 μM peptide, 24 h
Method: After incubation the tissue was pipetted through a nylon mesh into a sterile beaker. The cells were then washed three times in complete medium (RPMI 1640 supplemented with 10% FCS). RA synovial fibroblasts were isolated from the mixed population of RA membrane cells by selection in DMEM (Bio-Whittaker) supplemented with 10% FBS, […], 100 U/ml penicillin, and streptomycin. Human monocytes were isolated from peripheral blood (London Blood Bank) and macrophages were derived from monocytes after differentiation for 4 days with 100 ng/ml of M-CSF.
(§1) Macrophages were cultured at 1×10^5 cells/well in RPMI 1640 containing 5% (v/v) FBS and 100 U/ml penicillin/streptomycin in 96-well tissue culture plates for 24 h before stimulation. Cells were incubated for 24 h at 37° C. with no addition, 1.0 μM FBG, 1 ng/ml LPS or 1 or 20 μM FBG peptide. Where stated, cells were pre-incubated with 20 μM FBG peptides for 15 min.
(§2) Supernatants were examined for the presence of the cytokines TNF-α, IL-6, and IL-8 by enzyme-linked immunosorbent assay (ELISA) according to the manufacturer's instructions (R&D systems). Absorbance was read on a spectrophotometric ELISA plate reader (Labsystems Multiscan Biochromic, Vantaa, Finland) and analyzed using the Ascent software program (Thermo Labsystems, Altrincham, UK).

RA sera = test: IgG response to cyclic citrullinated FBG peptides in RA and control sera; format: binding, human; settings: RA sera (n=20) vs control sera (n=20)
Excerpt: (A) Peptides with sequences corresponding to the amino acid sequence of FBG were designed, with the addition of cysteine residues at the amino and carboxy termini and the exchange of arginine for citrulline residues at positions identified by LC-MS/MS. (B) IgG response to citrullinated FBG peptides and arginine containing control peptides in patients with rheumatoid arthritis (RA; n=20) and healthy controls (n=20). The 95th percentile of the control sera was used to determine positivity (dashed line). Mann-Whitney U test was used to calculate p values for differences between groups (n.s.=no significant difference, *=p<0.05 and **=p<0.01, ***=p<0.001, […]).
With reference to FIG. 31, the antibody response in 20 RA and 20 control sera to 6 cyclic FBG peptides, encompassing citrulline residues was evaluated.

human macrophages = test: FBG or LPS induced cytokine synthesis in human macrophages after pre-incubation with FBG peptides; format: cell-based; settings: pre-incubation with 20 μM peptide, 24 h; for FBG mediated cytokine synthesis: then 1 μM whole FBG
Method: as §1, §2

[2] = system: RA synovial membrane cultures; test: Blockade of spontaneous cytokine synthesis in RA synovial membrane cultures by FBG peptides; format: cell-based, human; settings: 24 h; for inhibition of cytokine synthesis at the highest concentrations: RA membrane cultures, peptide 25, 100 or 250 μM, highest concentration; for TNF and IL8 synthesis (spontaneous): RA synovial membrane cultures, 100 μM peptide
Method: RA membrane cells (representing a mixed population of all synovial cell types) were isolated from synovial membranes obtained from patients undergoing joint replacement surgery (Brennan (1989)). Synovial membrane tissue was digested in RPMI 1640 (GIBCO) containing 5% fetal calf serum (FCS) (GIBCO), 5 mg/ml collagenase type IV (Sigma) and 0 15 mg/ml DNAse type I (Sigma) and incubated at 37° C. for 2 h.
Immediately after isolation, RA membrane cells were cultured at 1×10^5 cells/well in RPMI 1640 containing 10% (v/v) FBS and 100 U/ml penicillin/streptomycin in 96-well tissue culture plates. Cells were incubated for 24 h at 37° C. with no addition, buffer control (PBS, 1% BSA, 0.01% NaN3), or with 25 μm, 100 μM or 250 μM of each FBG spanning peptide.
as §2

[3] = system: synovial fibroblasts from RA joints (RAF); test: Cell adhesion to coated FBG, crystal violet; format: cell-based, human; settings: coated wells, 45 minutes
Method: (§3) (A) The sequence identified to bind integrin αvβ3 is shown in white (Yokoyama et al., 2000). Within this sequence two Arginines (shown in black) were identified to be citrullinated. (B) Wells of a 96 well plate were coated with different concentrations of FBG, citrullinated FBG (cFBG), FBG incubated in buffer without Calcium (FBG —Ca^2+), or FBG incubated without PAD (FBG —PAD). As a positive control wells were coated with Fibronectin (FN) (1 ug/ml), and coating with BSA (10 mg/ml) served as negative control. Plates were incubated with human dermal fibroblasts (HDF) or synovial fibroblasts from RA patients (RAF) for 45 minutes and adhesion was measured by determining absorbance of attached cells after staining with crystal violet (0.1%). Data are shown as the mean of at least four independent experiments+s.e.m., *=p<0.05, **=p<0.01.

[4] = system: human dermal fibroblasts (HDF); test: Cell adhesion to coated FBG, crystal violet; format: cell-based; settings: coated wells, 45 minutes
Method: as §3

[5] = system: primary human macrophages; test: TNF synthesis in primary human macrophages stimulated with native or citrullinated FBG; format: cell-based; settings: 0.1-1.0 μM, 24 h
Method: Primary human macrophages were isolated as described above and cultured at 1×10^5 cells/well in RPMI 1640 containing 5% (v/v) FBS and 100 U/ml penicillin/streptomycin in 96-well tissue culture plates for 24 h before stimulation. Cells were incubated for 24 h at 37° C. with no addition (UN), different concentrations (uM) of native FBG (nFBG) or cit FBG (cFBG) or citrullination buffer alone (CIT) or cit buffer plus PAD enzyme (CIT+PAD).
Supernatants were examined for the presence of the cytokines TNF-α by enzyme-linked immunosorbent assay (ELISA) according to the manufacturer's instructions (R&D systems). Absorbance was read on a spectrophotometric ELISA plate reader (Labsystems Multiscan Biochromic, Vantaa, Finland) and analyzed using the Ascent software program (Thermo Labsystems, Altrincham, UK).

KTRYKLKVEGYSGTAGDSMAYHNGRSFST [Peptide 6]
induction of cytokine synthesis [1]: induced cytokine synthesis in a dose dependent manner

CEMKL-Cit-PSNF-Cit-NLEGRRKRC (CEMKL[Cit]PSNF[Cit]NLEGRRKRC; also: cyclic, closure not given here) [CIT209/214]
antibody response (RA sera): strong antibody response

CVFLRRKNG-Cit-ENFYQNWC (CVFLRRKNG[Cit]ENFYQNWC; also: cyclic, closure not given here) [CIT55]
antibody response (RA sera): strong antibody response

ELRVDLRDHGETAFAVYDKFSVGDAKTRYK [Peptide 5]
induction of cytokine synthesis [1]: induced cytokine synthesis in a dose dependent manner | FBG mediated cytokine synthesis (human macrophages): specifically blocked | effect on TNF synthesis ([2]; RA membrane cells): no effect | maximal inhibition of IL8 synthesis ([2]; RA membrane cells, dose dependent): 81%

TIGLLYPFPKDCSQAMLNGDTTSGLYTIYL [Peptide 1]
induction of cytokine synthesis [1]: induced cytokine synthesis in a dose dependent manner

CEMKLRPSNFRNLEG-Cit-Cit-KRC (CEMKLRPSNFRNLEG[Cit][Cit]KRC; also: cyclic, closure not given here) [CIT219/220]
antibody response (RA sera): strong antibody response

WYRNCHRVNLMGRYGDNNHSQGVNWFHWKG [Peptide 8]
LPS induced cytokine synthesis (human macrophages; then 1 ng/ml LPS): blocked | FBG mediated cytokine synthesis (human macrophages): blocked | inhibition of cytokine synthesis at the highest concentrations [2]: 56% | TNF and IL8 synthesis (spontaneous) [2]: inhibited

WIVFLRRKNGRENFYQNWKAYAAGFGDRRE [Peptide 3]
inhibition of cytokine synthesis at the highest concentrations [2]: 95% | TNF and IL8 synthesis (spontaneous) [2]: inhibited

B1: citrullinated FBG: recombinant FBG domain citrullinated in vitro with PAD (protein)
chain: GLLYPFPKDCSQAMLNGDTTSGLYTIYLNGDKAEALEVFCDMTSDGGGWIVFLRRKNGRENFYQNWKAYAAGFGDRREEFWLGLDNLNKITAQGQYELRVDLRDHGETAFAVYDKFSVGDAKTRYKLKVEGYSGTAGDSMAYHNGRSFSTFDKDTDSAITNCALSYKGAFWYRNCHRVNLMGRYGDNNHSQGVNWFHWKGHEHSIQFAEMKLRPSNFRNLEGRRKRA
modifications: non-natural residues; left off: small tags and cut ends
notes: recombinant FBG domain citrullinated in vitro with PAD
adhesion of RAF [3]: reduces adhesion | adhesion of HDF [4]: reduces adhesion | cytokine (TNFα) synthesis compared with native FBG [5]: better at stimulating cytokine (e.g. TNFα) synthesis
